Results as given in patent US7473669B2, “Substituted 4,5-dihydro-1,2,4-triazin-6-ones, 1,2,4-triazin-6-ones, and their use as fungicides” (priority 2005, dated 2009).

Experiments:
Format in all cases: in vivo
Erysiphe cichoracaerum = experiment: Cucumber Powdery Mildew greenhouse one-day protectant test; conditions: 24 h, cucumber plants, one-day protectant test, 200 ppm application rate, read-out: ERYSCI percent control rating
Colletotricum lagenarium = experiment: Cucumber Anthracnose greenhouse one-day protectant test; conditions: Cucumis sativus, 24 h, cucumber plants, one-day protectant test, 200 ppm application rate; read-out: COLLLA percent control rating
[1] = system: Puccinia recondita tritici; experiment: Leaf Rust of Wheat greenhouse one-day protectant test; conditions: 24 h, wheat plants, one-day protectant test, 200 ppm application rate, read-out: PUCCRT percent control rating
Leptosphaeria nodorum = experiment: Glume Blotch of Wheat greenhouse one-day protectant test; conditions: Parastagonospora nodorum, 24 h; wheat plants, one-day protectant test, 200 ppm application rate; read-out: LEPTNO percent control rating
Phytophthora infestans = experiment: whole plant or invertebrate; conditions: in Solanum lycopersicum, 24 h, read-out: PHYTIN percent control rating, tomato plants, one-day protectant test, 200 ppm application rate
Pyricularia oryzae = experiment: whole plant or invertebrate; conditions: 24 h, read-out: PYRIOR percent control rating

Row | Structure (SMILES) | pest or weed control at 200 ppm (Erysiphe cichoracaerum) | pest or weed control at 200 ppm (Colletotricum lagenarium) | pest or weed control at 200 ppm [1] | pest or weed control at 200 ppm (Leptosphaeria nodorum) | pest or weed control at 200 ppm (Phytophthora infestans) | pest or weed control at 200 ppm (Pyricularia oryzae)
1 | O=C1CNC(c2cccc(Oc3ccnc(Cl)c3)c2)=NN1CC(F)(F)F [Compound 33] | 0 to 49% | 0 to 49% | 80 to 100% | 50 to 79% | 0 to 49% | 0 to 49%
2 | O=C1CNC(c2ccc(-c3cc(Cl)cc(Cl)c3)nc2)=NN1CCF [Compound 34] | 0 to 49% | 50 to 79% | 80 to 100% | 80 to 100% | 50 to 79% | 80 to 100%
3 | O=C1CNC(c2ccc(-c3ccc(C(F)(F)F)cc3)nc2)=NN1CCF [Compound 35] | 0 to 49% | 50 to 79% | 80 to 100% | 80 to 100% | 50 to 79% | 80 to 100%
4 | Cc1cc(C)cc(C2=NN(CC(F)(F)F)C(=O)C(SCc3ccccc3)N2)c1 (stereo not drawn) [Compound 36] | 0 to 49% | 80 to 100% | 80 to 100% | 80 to 100% | 0 to 49% | 80 to 100%
5 | Cc1cc(C)cc(C2=NN(CC(F)(F)F)C(=O)C(SC3CCCCC3)N2)c1 (stereo not drawn) [Compound 37] | 0 to 49% | 80 to 100% | 80 to 100% | 80 to 100% | 0 to 49% | 80 to 100%
6 | Cc1cc(C)cc(C2=NN(CC(F)(F)F)C(=O)C(SCCO)N2)c1 (stereo not drawn) [Compound 38] | 0 to 49% | 0 to 49% | 80 to 100% | 80 to 100% | 0 to 49% | 80 to 100%
7 | Cc1cc(C)cc(C2=NN(CC(F)(F)F)C(=O)C(SCCCCl)N2)c1 (stereo not drawn) [Compound 39] | 0 to 49% | 80 to 100% | 80 to 100% | 80 to 100% | 0 to 49% | 80 to 100%
8 | Cc1cc(C)cc(C2=NN(CC(F)(F)F)C(=O)C(OCc3ccccc3)N2)c1 (stereo not drawn) [Compound 40] | 0 to 49% | 80 to 100% | 80 to 100% | 80 to 100% | 0 to 49% | 80 to 100%
9 | Cc1cc(C)cc(C2=NN(CC(F)(F)F)C(=O)C(OC3CCCCC3)N2)c1 (stereo not drawn) [Compound 41] | 0 to 49% | 50 to 79% | 80 to 100% | 80 to 100% | 0 to 49% | 80 to 100%
10 | Cc1cc(C)cc(C2=NN(CC(F)(F)F)C(=O)C(SCC(=O)O)N2)c1 (stereo not drawn) [Compound 42] | 0 to 49% | 80 to 100% | 80 to 100% | 80 to 100% | 0 to 49% | 80 to 100%
11 | Cc1cc(C2=NN(CC(F)(F)F)C(=O)C(SC3CCCCC3)N2)ccc1Br (stereo not drawn) [Compound 43] | 0 to 49% | 80 to 100% | 80 to 100% | 80 to 100% | 80 to 100% | 80 to 100%
12 | O=C1C(SC2CCCCC2)NC(c2cc(Br)cc(Br)c2)=NN1CC(F)(F)F (stereo not drawn) [Compound 44] | 0 to 49% | 80 to 100% | 80 to 100% | 80 to 100% | 80 to 100% | 80 to 100%
13 | O=C1C(SC2CCCCC2)NC(c2ccc(Oc3ccccc3)c(-c3ccccc3)c2)=NN1CC(F)(F)F (stereo not drawn) [Compound 45] | 0 to 49% | 50 to 79% | 50 to 79% | 80 to 100% | 0 to 49% | 80 to 100%
14 | O=C1C(SC2CCCCC2)NC(c2cccc(/C=C\c3ccccc3)c2)=NN1CC(F)(F)F (stereo not drawn) [Compound 47] | 80 to 100% | 80 to 100% | 80 to 100% | 80 to 100% | 0 to 49% | 80 to 100%
15 | O=C1C(SC2CCCCC2)NC(c2ccc(Br)s2)=NN1CC(F)(F)F (stereo not drawn) [Compound 50] | 0 to 49% | 50 to 79% | 80 to 100% | 80 to 100% | 0 to 49% | 80 to 100%
16 | Cc1ccccc1-c1cccc(C2=NN(CC(F)(F)F)C(=O)C(SC3CCCCC3)N2)c1 (stereo not drawn) [Compound 51] | 0 to 49% | 50 to 79% | 80 to 100% | 80 to 100% | 0 to 49% | 80 to 100%
17 | O=C1C(SC2CCCCC2)NC(c2cccc(-c3ccccc3OC(F)(F)F)c2)=NN1CC(F)(F)F (stereo not drawn) [Compound 52] | 0 to 49% | 0 to 49% | 80 to 100% | 80 to 100% | 0 to 49% | 80 to 100%
18 | COc1ccccc1-c1cccc(C2=NN(CC(F)(F)F)C(=O)C(SC3CCCCC3)N2)c1 (stereo not drawn) [Compound 53] | 0 to 49% | 50 to 79% | 80 to 100% | 80 to 100% | 0 to 49% | 80 to 100%
19 | O=C(c1ccccc1)c1cccc(C2=NN(CC(F)(F)F)C(=O)C(SC3CCCCC3)N2)c1 (stereo not drawn) [Compound 54] | 0 to 49% | 50 to 79% | 50 to 79% | 80 to 100% | 0 to 49% | 80 to 100%
20 | O=C1C(SC2CCCCC2)NC(c2cccc(-c3ccsc3)c2)=NN1CC(F)(F)F (stereo not drawn) [Compound 55] | 0 to 49% | 50 to 79% | 50 to 79% | 80 to 100% | 0 to 49% | 80 to 100%
21 | CON=C(c1ccccc1)c1cccc(C2=NN(CC(F)(F)F)C(=O)C(SC3CCCCC3)N2)c1 (stereo not drawn) [Compound 56] | 0 to 49% | 0 to 49% | 50 to 79% | 80 to 100% | 0 to 49% | 80 to 100%
22 | O=C1C(SC2CCCCC2)NC(c2cccc(C(=NOCc3ccccc3)c3ccccc3)c2)=NN1CC(F)(F)F (stereo not drawn) [Compound 57] | 0 to 49% | 0 to 49% | 0 to 49% | 0 to 49% | 0 to 49% | 0 to 49%
23 | O=C1CNC(c2ccc(N3CCOCC3)cc2)=NN1CC(F)(F)F [Compound 58] | 50 to 79% | 0 to 49% | 0 to 49% | 0 to 49% | 0 to 49% | 80 to 100%
